{
  "source": "patent US6344474B1",
  "about": "“Use of central cannabinoid receptor antagonists for regulating appetence” (Sanofi-Synthelabo, priority 1997, dated 2002)",
  "key": {"Male C 57 BL 6 mice": {"system": "Male C 57 BL 6 mice", "assay": "Effect of SR 141716 A on the consumption of an alcohol solution in mice", "format": "in vivo, mouse", "conditions": "6 hours; for Amount of alcohol consumed in g on D4: 10% alcohol solution", "method": "TEST No. 2: Effect of SR 141716 A on the consumption of an alcohol solution in mice\nMale C 57 BL 6 mice (Iffa-Credo) are isolated on the day of their arrival in an animal housing under a reverse cycle (night from 10 am to 10 pm) with 2 bottles filled with water. After 1 week, one of the bottles of water is replaced with a bottle filled with a 10% alcohol solution for 6 hours of the test. Each day, 30 minutes before the bottle of alcohol is introduced, the mice are treated subcutaneously with SR 141716 A. The amounts of alcohol and water consumed are measured after 6 hours. The test is repeated for 4 days."}, "Male Sprague-Dawley rats": {"system": "Male Sprague-Dawley rats", "assay": "Effect of SR 141716 A on the intake of a sucrose solution in rats", "format": "in vivo, rat", "conditions": "for Consumption of sucrose solution in g, 1 hour / Consumption of sucrose solution in g, 2 hours / Consumption of sucrose solution in g, 3 hours / Consumption of sucrose solution in g, 4 hours: 5% sucrose solution; for Consumption of sucrose solution in g, 1 hour: T0+1 hour; for Consumption of sucrose solution in g, 2 hours: T0+2 hours; for Consumption of sucrose solution in g, 3 hours: T0+3 hours; for Consumption of sucrose solution in g, 4 hours: T0+4 hours", "method": "TEST No. 1: Effect of SR 141716 A on the intake of a sucrose solution in rats\nThe experiment is performed according to W. C. Lynch et al., Physiol. Behav., 1993, 54, 877-880.\nMale Sprague-Dawley rats weighing 190 to 210 g are under a normal light cycle (from 7 am to 7 pm) and receive water and food ad libitum.\nFor 6 days, between 11 am and 3 pm, the food and the water bottles are withdrawn and the rats are given a 5% sucrose solution to drink.\nRats drinking less than 3 g of sucrose solution are eliminated.\nOn the seventh day the test is carried out according to the following procedure:\n9 am: withdrawal of food,\n10 am: oral administration of SR 141716 A,\n11 am=T0: introduction of bottles containing a weighed sucrose solution , T0+1 hour, T0+2 hours, T0+3 hours, T0+4 hours: measurement of the sucrose consumption by weighing of the bottles."}},
  "data": [
    {"smiles": "Cc1c(C(=O)NN2CCCCC2)nn(-c2ccc(Cl)cc2Cl)c1-c1ccc(Cl)cc1", "note": "[SR 141716 A, N-piperidino-5-(4-chlorophenyl)-1-(2,4-dichlorophenyl)-4-methylpyrazole-3-carboxamide]", "values": [
      {"measurement": "Amount of alcohol consumed in g on D4", "setting": "Male C 57 BL 6 mice; 0.1 mg/kg sc", "value": "1.4 ± 0.2", "unit": "g"},
      {"measurement": "Amount of water consumed", "setting": "Male C 57 BL 6 mice; 0.1 mg/kg sc", "value": "1.1 ± 0.3", "unit": "g"},
      {"measurement": "Amount of alcohol consumed in g on D4", "setting": "Male C 57 BL 6 mice; 0.3 mg/kg sc", "value": "1.3 ± 0.2", "unit": "g"},
      {"measurement": "Amount of water consumed", "setting": "Male C 57 BL 6 mice; 0.3 mg/kg sc", "value": "1.1 ± 0.3", "unit": "g"},
      {"measurement": "Amount of alcohol consumed in g on D4", "setting": "Male C 57 BL 6 mice; 1 mg/kg sc", "value": "1.1 ± 0.2", "unit": "g"},
      {"measurement": "Amount of water consumed", "setting": "Male C 57 BL 6 mice; 1 mg/kg sc", "value": "1.3 ± 0.1", "unit": "g"},
      {"measurement": "Amount of alcohol consumed in g on D4", "setting": "Male C 57 BL 6 mice; 3 mg/kg sc, 3 mg/kg", "value": "1.0 ± 0.2", "unit": "g"},
      {"measurement": "Amount of water consumed", "setting": "Male C 57 BL 6 mice; 3 mg/kg sc, 3 mg/kg", "value": "1.6 ± 0.3", "unit": "g"},
      {"measurement": "Consumption of sucrose solution in g, 1 hour", "setting": "Male Sprague-Dawley rats; 0.3 mg/kg po", "value": 5.18, "unit": "g"},
      {"measurement": "Consumption of sucrose solution in g, 2 hours", "setting": "Male Sprague-Dawley rats; 0.3 mg/kg po", "value": 9.18, "unit": "g"},
      {"measurement": "Consumption of sucrose solution in g, 3 hours", "setting": "Male Sprague-Dawley rats; 0.3 mg/kg po", "value": 12.49, "unit": "g"},
      {"measurement": "Consumption of sucrose solution in g, 4 hours", "setting": "Male Sprague-Dawley rats; 0.3 mg/kg po", "value": 16.10, "unit": "g"},
      {"measurement": "Consumption of sucrose solution in g, 1 hour", "setting": "Male Sprague-Dawley rats; 1 mg/kg po", "value": "3.27 ± g"},
      {"measurement": "Consumption of sucrose solution in g, 2 hours", "setting": "Male Sprague-Dawley rats; 1 mg/kg po", "value": "3.61 ± g"},
      {"measurement": "Consumption of sucrose solution in g, 3 hours", "setting": "Male Sprague-Dawley rats; 1 mg/kg po", "value": "5.65 ± g"},
      {"measurement": "Consumption of sucrose solution in g, 4 hours", "setting": "Male Sprague-Dawley rats; 1 mg/kg po", "value": "7.43 ± g"},
      {"measurement": "Consumption of sucrose solution in g, 1 hour", "setting": "Male Sprague-Dawley rats; 3 mg/kg po", "value": "2.95 ± g"},
      {"measurement": "Consumption of sucrose solution in g, 2 hours", "setting": "Male Sprague-Dawley rats; 3 mg/kg po", "value": "5.41 ± g"},
      {"measurement": "Consumption of sucrose solution in g, 3 hours", "setting": "Male Sprague-Dawley rats; 3 mg/kg po", "value": "6.96 ± g"},
      {"measurement": "Consumption of sucrose solution in g, 4 hours", "setting": "Male Sprague-Dawley rats; 3 mg/kg po", "value": "8.58 ± g"},
      {"measurement": "Dose at or above which consumption of aqueous sugar solution is very considerably reduced", "setting": "Male Sprague-Dawley rats; oral administration", "value": "≥ 0.3", "unit": "mg/kg"}
    ]}
  ]
}
